Laboratory results as given in US8546409B2, “Methods of treatment for solid tumors” (priority 2009, dated 2013).
Like-named read-outs stand apart in the source and are kept apart here.

Tests used:
[1] = biological target: DNA-PK (Homo sapiens, UniProt P78527); assay: Inhibition of kinase activity of other lipid kinases, DNA-PK; format: biochemical; conditions: read-out: IC-50 for inhibition of kinase activity, DNA-PK
[2] = biological target: mTOR (Homo sapiens, UniProt P42345); assay: Inhibition of kinase activity of other lipid kinases, mTOR; format: biochemical; conditions: read-out: IC-50 for inhibition of kinase activity, mTOR
[3] = biological target: T1, p110γ (Homo sapiens, UniProt P48736); assay: Cell-based p110γ assay: fMLP stimulated CD63 movement to surface of basophils
T1 construct: endogenous in cells; host or cells: basophils
Description: The p110α assay used SW3T3 cells stimulated by PDGF, and p110 kinase activity was measured by Akt phosphorylation. The p110β activity was measured by lysophosphatidic acid stimulation of Akt phosphorylation in mouse embryonic fibroblasts. The activity of p110δ was measured by anti-FcεR1 antibody cross linking stimulation of CD63 movement to the surface of basophils. Finally, the activity of p110γ was measured by fMLP stimulation of CD63 antigen movement to the cell surface of basophils.

[4] = tested on: OVCAR-3; assay: Tumor cell culture growth, optical density at 459 nm (FIG. 7), OVCAR-3; format: cell-based; conditions: OVCAR-3, 5-10 micromolar
[5] = Half-life in vivo in rats
Text: Treatments of the invention typically involve administration of compound Ito a subject in need of treatment on a daily basis for at least one week or more than one week, often for 2-4 weeks, and sometimes for 1-3 months or more. The half-life of Compound I in vivo in mice and rats is several hours—see FIG. 6. It is thus sometimes desirable to administer compound I in multiple doses each day, in order to maintain efficacious plasma levels over a prolonged period of time. Administration may be done in two doses per day, or three doses per day, or in some embodiments, four doses per day or more, particularly when Compound I is administered orally. Alternatively, Compound I can be administered intravenously at a rate that maintains an efficacious plasma level for a prolonged period of time. Suitably, it would be administered at a rate to achieve a plasma level of at least about 1 micromolar, or at least 3 micromolar, or at least 5 micromolar.

[6] = tested on: NCI panel cancer cell lines; assay: NCI panel of tumor cell assays, summary over cell lines; format: cell-based; conditions: for Cell line number: GI50 less than 2 micromolar
Text: Compound I has also been tested in a battery of tumor cell assays known as the NCI panel. […] Using this measure, 1.8% of cell lines were particularly sensitive to Compound B at this level, while 39% were particularly sensitive to Compound I at the same concentration. […] Loss of PTEN activity often occurs in cancers, and enhances the sensitivity of a tumor to PI3K inhibitors. […] The following Table summarizes the cell lines found to be sensitive to Compound I and the known mutations in those cell lines.

[7] = tested on: A549; assay: NCI panel growth inhibition, A549; format: cell-based; conditions: Homo sapiens, Non-Small Cell Lung Cancer
Text: (§1) Compound I has also been tested in a battery of tumor cell assays known as the NCI panel.

[8] = tested on: EKVX; assay: NCI panel growth inhibition, EKVX; format: cell-based; conditions: Homo sapiens, Non-Small Cell Lung Cancer
Text: as §1

[9] = tested on: NCI-H322M; assay: NCI panel growth inhibition, NCI-H322M; format: cell-based; conditions: Homo sapiens, Non-Small Cell Lung Cancer
Text: as §1

[10] = tested on: NCI-H460; assay: NCI panel growth inhibition, NCI-H460; format: cell-based; conditions: Homo sapiens, Non-Small Cell Lung Cancer
Text: as §1

[11] = tested on: HCC-2998; assay: NCI panel growth inhibition, HCC-2998; format: cell-based; conditions: Homo sapiens, Colon Cancer
Text: as §1

[12] = tested on: HT29; assay: NCI panel growth inhibition, HT29; format: cell-based; conditions: Homo sapiens, HT-29, Colon Cancer
Text: as §1

[13] = tested on: KM12; assay: NCI panel growth inhibition, KM12; format: cell-based; conditions: Homo sapiens, Colon Cancer
Text: as §1

[14] = tested on: SW-620; assay: NCI panel growth inhibition, SW-620; format: cell-based; conditions: Homo sapiens, Colon Cancer
Text: as §1

[15] = tested on: SF-295; assay: NCI panel growth inhibition, SF-295; format: cell-based; conditions: Homo sapiens, CNS Cancer
Text: as §1

[16] = tested on: SF-539; assay: NCI panel growth inhibition, SF-539; format: cell-based; conditions: Homo sapiens, CNS Cancer
Text: as §1

[17] = tested on: SNB-75; assay: NCI panel growth inhibition, SNB-75; format: cell-based; conditions: Homo sapiens, CNS Cancer
Text: as §1

[18] = tested on: LOX IMVI; assay: NCI panel growth inhibition, LOX IMVI; format: cell-based; conditions: Homo sapiens, Melanoma
Text: as §1

[19] = tested on: OVCAR-5; assay: NCI panel growth inhibition, OVCAR-5; format: cell-based; conditions: Homo sapiens, Ovarian
Text: as §1

[20] = tested on: 786-0; assay: NCI panel growth inhibition, 786-0; format: cell-based; conditions: Homo sapiens, Renal
Text: as §1

[21] = tested on: ACHN; assay: NCI panel growth inhibition, ACHN; format: cell-based; conditions: Homo sapiens, Renal
Text: as §1

[22] = tested on: SN12C; assay: NCI panel growth inhibition, SN12C; format: cell-based; conditions: Homo sapiens, Renal
Text: as §1

[23] = tested on: UO-31; assay: NCI panel growth inhibition, UO-31; format: cell-based; conditions: Homo sapiens, Renal
Text: as §1

[24] = tested on: DU-145; assay: NCI panel growth inhibition, DU-145; format: cell-based; conditions: Homo sapiens, Prostate
Text: as §1

T1 sequence (P48736 whole entry, species assumed): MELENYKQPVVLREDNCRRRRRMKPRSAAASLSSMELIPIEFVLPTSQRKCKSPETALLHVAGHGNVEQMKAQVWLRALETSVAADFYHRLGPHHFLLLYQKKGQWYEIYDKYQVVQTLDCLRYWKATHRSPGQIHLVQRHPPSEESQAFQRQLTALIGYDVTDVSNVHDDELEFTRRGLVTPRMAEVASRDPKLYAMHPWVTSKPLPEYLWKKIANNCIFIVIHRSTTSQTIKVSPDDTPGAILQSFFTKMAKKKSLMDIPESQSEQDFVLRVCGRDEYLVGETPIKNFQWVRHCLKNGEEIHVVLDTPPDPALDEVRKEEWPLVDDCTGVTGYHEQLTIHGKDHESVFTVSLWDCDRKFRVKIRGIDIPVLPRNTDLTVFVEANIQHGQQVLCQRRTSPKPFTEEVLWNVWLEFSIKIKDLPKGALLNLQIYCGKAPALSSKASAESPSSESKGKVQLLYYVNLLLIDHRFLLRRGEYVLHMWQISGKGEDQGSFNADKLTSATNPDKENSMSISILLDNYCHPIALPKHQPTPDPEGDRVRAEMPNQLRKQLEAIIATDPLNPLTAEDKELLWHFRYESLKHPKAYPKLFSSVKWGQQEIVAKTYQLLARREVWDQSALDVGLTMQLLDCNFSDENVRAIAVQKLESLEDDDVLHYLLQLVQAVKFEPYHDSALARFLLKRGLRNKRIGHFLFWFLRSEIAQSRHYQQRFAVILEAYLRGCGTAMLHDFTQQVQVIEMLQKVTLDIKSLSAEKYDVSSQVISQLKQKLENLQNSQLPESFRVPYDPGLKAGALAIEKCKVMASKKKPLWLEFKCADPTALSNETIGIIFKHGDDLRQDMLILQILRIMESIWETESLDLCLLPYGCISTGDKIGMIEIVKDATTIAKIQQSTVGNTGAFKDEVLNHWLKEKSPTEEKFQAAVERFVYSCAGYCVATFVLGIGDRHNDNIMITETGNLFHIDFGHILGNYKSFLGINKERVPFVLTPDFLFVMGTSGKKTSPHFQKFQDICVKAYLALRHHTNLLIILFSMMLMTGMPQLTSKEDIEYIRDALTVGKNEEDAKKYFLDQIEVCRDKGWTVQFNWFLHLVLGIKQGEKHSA

In the case of `C[C@H](Nc1ncnc2[nH]cnc12)c1nc2ccc(F)cc2c(=O)n1-c1ccccc1` [Compound I], the IC50 [1] is reported as 13 µM, the IC50 [2] is reported as 100 µM and the EC50 ([3]; FB, read-out: Cell-based assay EC50 p110γ, FB) is reported as 3 µM. The EC50 ([3]; WB, read-out: Cell-based assay EC50 p110γ, WB) was 5.4 µM, the “Inhibition of tumor cell culture growth” value [4] was “strong inhibition of growth” and the Half-life in vivo [5] was “several hours”. The “% EC50 < 2 μM” value ([6]; Breast) was 62%, the Cell line number ([6]; Breast) was 5/8 and the “% EC50 < 2 μM” value ([6]; CNS) was 50%. The Cell line number ([6]; CNS) was 3/6, the “% EC50 < 2 μM” value ([6]; Colon) was 14% and the Cell line number ([6]; Colon) was 1/7. The “% EC50 < 2 μM” value ([6]; Melanoma) was 12%, the Cell line number ([6]; Melanoma) was 1/8 and the “Cell lines with mutations in PTEN inhibited” value ([6]; NCI panel cell lines known to have PTEN mutations) was 70%. For the same molecule, the “% EC50 < 2 μM” value ([6]; NSCLC) was 11%, the Cell line number ([6]; NSCLC) was 1/9 and the “% EC50 < 2 μM” value ([6]; Ovarian) was 33%. For the same molecule, the Cell line number ([6]; Ovarian) was 2/6, the Cell line number ([6]; Prostate) was 2/2 and the “% EC50 < 2 μM” value ([6]; Prostrate) was 100%. For the same molecule, the “% EC50 < 2 μM” value ([6]; Renal) was 75%, the Cell line number ([6]; Renal) was 6/8 and the “Cell lines particularly sensitive (GI50 of 2 micromolar or less)” value ([6]; all NCI panel cell lines) was 39%. The GI50 [7] was 20.7 µM, the GI50 [8] was 16.7 µM and the GI50 [9] was 10.5 µM. For the same molecule, the GI50 [10] was 25.7 µM, the GI50 [11] was 32.4 µM and the GI50 [12] was 16.5 µM. The GI50 [13] was 2 µM, the GI50 [14] was 69.3 µM and the GI50 [15] was 1.81 µM. It also gave a GI50 [16] of 15.9 µM, a GI50 [17] of 0.0594 µM and a GI50 [18] of 36.1 µM. For the same molecule, the GI50 [19] was 27.7 µM, the GI50 [20] was 1.99 µM and the GI50 [21] was 10.7 µM. For the same molecule, the GI50 [22] was 22.5 µM, the GI50 [23] was 2.01 µM and the GI50 [24] was 1.35 µM.
